Like-named read-outs stand apart in the source and are kept apart here.
How the values were obtained:
Type in all cases: cell-based
[1] = test system: cellular SDMA in HCT116 cells; test: In-Cell Western Assay of cellular SDMA, HCT116; details: Homo sapiens, HCT-116, 96 hours, read-out: SDMA inhibition IC50 in HCT116
Source text: (§1) HCT116^MTAPD Deletion cells were from Horizon; HCT116 cells were from ATCC; RPMI-1640 medium was purchased from ATCC (USA); penicillin-streptomycin was purchased from Gibco (USA); fetal bovine serum was purchased from ExCell; 96-well plate was purchased from Corning (USA); Symmetric Di-Methyl Arginine Motif [sdme-RG]antibody was purchased from CST (USA); IRDye 800CW Goat anti-Rabbit IgG secondary antibody was purchased from LI-COR (USA), and CellTag 700 stain was purchased from LI-COR (USA).
(§2) Compound dissolution: All the compounds were dissolved in dimethyl sulfoxide (DMSO) and then stored. The compounds were stored at −20 °C for long term storage.
The cells were cultured strictly in accordance with ATCC requirements. The cell culture medium (RPMI-1640 medium+10% serum+1% penicillin+streptomycin) was transferred to a 15 mL centrifuge tube and centrifuged at 1000 rpm for 5 min. The supernatant was removed. The cells were resuspended with complete culture medium, inoculated into a culture dish at the required density, and cultured in an incubator at 37 °C, 95% humid air, and 5% carbon dioxide. […]
150 μL of 8% paraformaldehyde was added to each well, and the plate was incubated at room temperature for 15 minutes. […] Signals were detected using Licor Odyssey CLX. […] The data were analyzed, and the final IC50 value was obtained.

[2] = biological target: T1, cellular SDMA in HCT116^MTAP Deletion cells (Homo sapiens, UniProt O14744); test: In-Cell Western Assay of cellular SDMA, HCT116 MTAP Deletion; details: 96 hours, read-out: SDMA inhibition IC50 in HCT116^MTAP Deletion
T1 construct: in-cell Western of symmetric dimethylarginine
T1 sequence (O14744 whole entry, stated change not applied): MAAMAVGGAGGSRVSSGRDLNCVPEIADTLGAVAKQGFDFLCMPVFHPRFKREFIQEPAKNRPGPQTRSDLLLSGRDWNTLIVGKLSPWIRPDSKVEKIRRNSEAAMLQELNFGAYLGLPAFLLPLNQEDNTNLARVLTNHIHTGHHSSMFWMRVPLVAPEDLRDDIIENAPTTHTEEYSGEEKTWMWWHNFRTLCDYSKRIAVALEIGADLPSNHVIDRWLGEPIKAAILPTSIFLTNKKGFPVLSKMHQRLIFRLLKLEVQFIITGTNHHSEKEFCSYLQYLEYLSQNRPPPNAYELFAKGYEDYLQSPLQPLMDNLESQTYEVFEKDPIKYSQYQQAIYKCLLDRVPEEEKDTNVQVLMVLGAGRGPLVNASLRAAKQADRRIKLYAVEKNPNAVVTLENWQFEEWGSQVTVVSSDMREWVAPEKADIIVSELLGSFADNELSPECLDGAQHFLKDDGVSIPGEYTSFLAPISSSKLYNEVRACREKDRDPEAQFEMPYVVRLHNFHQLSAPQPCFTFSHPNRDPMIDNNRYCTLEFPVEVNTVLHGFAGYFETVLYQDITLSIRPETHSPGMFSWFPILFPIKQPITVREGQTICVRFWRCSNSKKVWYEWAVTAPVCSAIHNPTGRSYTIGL
T1 sequence (Q9BQA1 whole entry partner): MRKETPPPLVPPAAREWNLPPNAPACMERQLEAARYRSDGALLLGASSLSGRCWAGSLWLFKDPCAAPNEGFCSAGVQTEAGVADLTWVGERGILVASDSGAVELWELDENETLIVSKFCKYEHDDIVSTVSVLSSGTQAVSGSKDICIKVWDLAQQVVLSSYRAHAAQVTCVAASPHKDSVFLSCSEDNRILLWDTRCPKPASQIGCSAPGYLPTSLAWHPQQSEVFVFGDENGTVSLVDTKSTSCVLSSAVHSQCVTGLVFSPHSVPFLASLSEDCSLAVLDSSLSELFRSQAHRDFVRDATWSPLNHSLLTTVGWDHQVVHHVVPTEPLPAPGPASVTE
Source text: as §1, §2
(§3) The cells were cultured strictly in accordance with ATCC requirements. The cell culture medium (RPMI-1640 medium+10% serum+1% penicillin+streptomycin) was transferred to a 15 mL centrifuge tube and centrifuged at 1000 rpm for 5 min. The supernatant was removed. The cells were resuspended with complete culture medium, inoculated into a culture dish at the required density, and cultured in an incubator at 37 °C, 95% humid air, and 5% carbon dioxide. The culture medium was replenished or the cells were passaged every 2-3 days depending on the cell growth condition.
When the confluency of cells in the culture dish reached about 90%, the cells were washed twice with PBS, and then digested with trypsin. 100 μl of the cells was inoculated into each well of a 96-well plate (800 cells/well). The plate was incubated overnight in a 37 °C and 5% CO2 incubator. 50 μL of 3× final concentration of a compound was added to the cell culture plate. Each compound was subjected to a 3-fold dilution, resulting in 10 concentration gradients, in duplicate, and the final concentration of DMSO was 0.5%. The plate was incubated in a 37 °C and 5% CO2 incubator for 96 hours.
150 μL of 8% paraformaldehyde was added to each well, and the plate was incubated at room temperature for 15 minutes. The supernatant was discarded. The plate was washed with PBS, and 200 μL of freshly prepared 1× Permeabilization buffer was added to each well. The plate was incubated at room temperature for 30 minutes. The supernatant was discarded. 200 μL of 1× Blocking buffer was added to each well, and the plate was incubated at room temperature for 2 hours. The supernatant was discarded. 50 μL of primary antibody (CST, 1× Incubation buffer 1:500 dilution) was added to each well, and the plate was incubated at 4 °C overnight. The supernatant was discarded. 250 μL of 1× Washing buffer was added to each well, and the plate was washed three times. 50 μL of secondary antibody (IRDye 800CW Goat anti-Rabbit IgG and CellTag 700 dye, 1:800 and 1:500 diluted in Incubation buffer) was added to each well, and the plate was incubated at room temperature for 1 hour. The supernatant was discarded. The plate was washed with 1× Washing buffer. Signals were detected using Licor Odyssey CLX. […] According to the different drug concentrations and their corresponding inhibition rates, the IC50 curve was drawn using GraphPad 8.0 software. The data were analyzed, and the final IC50 value was obtained.

[3] = test system: HCT116^MTAP Deletion cells; test: Anti-proliferation assay on cells (CTG, 10 days), HCT116 MTAP Deletion
Method: (§4) HCT116^MTAD Deletion cells were from Pharmaron (China); HCT116 cells were from ATCC; McCoy's 5A medium was purchased from Invitrogen (USA); penicillin-streptomycin and fetal bovine serum were purchased from Gibco (USA); a 384-well plate was purchased from PerkinElmer (USA); and Cell-Titer Glo reagent was purchased from Promega (USA).
(§5) Compound dissolution: All the compounds were dissolved in dimethyl sulfoxide (DMSO) and then stored. The compounds were stored at room temperature in a dry condition for 3 months for short term storage or at −20 °C for long term storage.
as §3, with “(McCoy's 5A” for “(RPMI-1640”, “medium+10% fetal bovine” for “medium+10%”
(§6) When the confluency of cells in the culture dish reached about 90%, the cells were washed twice with PBS, and then treated with trypsin to become single cells. The cells were counted, and 40 μl of the cells was inoculated into each well of a 384-well plate (50 cells/well). The plate was equilibrated at 37 °C and 5% carbon dioxide for 10 to 15 minutes. The compounds were injected into the 384-well plate using Echo550, and positive control and negative control (0.1% DMSO) were set up. Each compound was subjected to a 3-fold dilution, resulting in 10 concentration gradients, in duplicate, and the content of DMSO was 0.1%. The 384-well plate was incubated in a cell culture incubator for 10 days.
(§7) Then, 40 μl of cell proliferation assay reagent (CTG) was added to the 384-well plate, and the plate was shaken to mix well. Then, the 384-well plate was incubated at 37 °C and 5% carbon dioxide in the dark for 30 minutes. The data were read using the Envision multifunctional microplate reader. […] According to the different drug concentrations and their corresponding inhibition rates, the GI50 curve was drawn using GraphPad 8.0 software. The data were analyzed, and the final GI50 value was obtained.

[4] = test system: HCT116 cells (HCT116^MTAP WT); test: Anti-proliferation assay on cells (CTG, 10 days), HCT116 (MTAP WT); details: for selectivity (HCT116 vs HCT116^MTAP Deletion GI50): 14400 min; for GI50: Homo sapiens, HCT-116, HCT116 (MTAP WT); for Selectivity multiple of HCT116^MTAP WT GI50/HCT116^MTAP Deletion GI50: ratio HCT116 MTAP WT GI50 / HCT116 MTAP Deletion GI50
Method: as §4, §5
as §3, with “(McCoy's 5A” for “(RPMI-1640”, “medium+10% fetal bovine” for “medium+10%”
as §6, §7

[5] = anti-proliferative activity, HCT116 MTAP Deletion, 10 days, class symbols, read-out: HCT116^MTAP Deletion GI50
[6] = Homo sapiens, HCT-116, 240 h, anti-proliferative activity, HCT116 MTAP Deletion, 10 days, class symbols, read-out: HCT116^MTAP Deletion GI50
[7] = Homo sapiens, HCT-116, HCT116 MTAP Deletion, read-out: GI50 for HCT116^MTAP Deletion

Row | IC50 [2] | GI50 [3, 5] | GI50 [3, 6] | Structure (SMILES) | also measured
1 | ≤ 10 nM | ≤ 10 nM | – | CN(C(=O)C(=O)Nc1cnc(N)c2c1cnn2C)C1COc2cc(C(F)(F)F)ccc21 (single isomer, unassigned) [Example 112-P1] | IC50 [1]: 100 to 1000 nM
2 | – | – | 1000 to 10000 nM | Cc1cc(NC(=O)C(=O)N(Cc2ccc(C(F)(F)F)cn2)C(C)(C)C)cnc1N [Example 33] | selectivity (HCT116 vs HCT116^MTAP Deletion GI50) [4]: more than 300 times; GI50 [4]: 1000 to 10000 nM; GI50 [3, 7]: ≤ 100 nM
3 | – | – | 100 to 1000 nM | C[C@H](c1ncccn1)N(Cc1ccc(C(F)(F)F)cn1)C(=O)C(=O)Nc1cnc(N)c2cnn(C)c12 [Example 34] | selectivity (HCT116 vs HCT116^MTAP Deletion GI50) [4]: more than 300 times; GI50 [4]: 1000 to 10000 nM; GI50 [3, 7]: ≤ 100 nM
4 | – | – | ≤ 10 nM | CN(C(=O)C(=O)Nc1cnc(N)c2c1cnn2C)C1COc2cc(C(F)(F)F)ccc21 (stereo not drawn) [Example 89] | Selectivity multiple of HCT116^MTAP WT GI50/HCT116^MTAP Deletion GI50 [4]: 160
5 | ≤ 10 nM | ≤ 10 nM | – | CN(C(=O)C(=O)Nc1cnc(N)c2c1cnn2C)C1COCc2cc(C(F)(F)F)ccc21 (stereo not drawn) [Example 106-P2] | Selectivity multiple of HCT116^MTAP WT GI50/HCT116^MTAP Deletion GI50 [4]: 169; IC50 [1]: 10 to 100 nM
6 | ≤ 10 nM | ≤ 10 nM | – | CN(C(=O)C(=O)Nc1cnc(N)c2c1cnn2C)C1COCc2cc(C3=CCOCC3)ccc21 (stereo not drawn) [Example 132-P1] | –
7 | ≤ 10 nM | – | ≤ 10 nM | Cc1ncc(-c2ccc3c(c2)COCC3N(C)C(=O)C(=O)Nc2cnc(N)c3c2cnn3C)s1 (stereo not drawn) [Example 135] | –
8 | 10 to 100 nM | – | – | CN(C(=O)C(=O)Nc1cnc(N)c2c1cnn2C)C1COCc2nc(C(F)(F)F)ccc21 (stereo not drawn) [Example 152-P2] | –
9 | ≤ 10 nM | – | – | CN(C(=O)C(=O)Nc1cnc(N)c2c1cnn2C)C1COCc2cc(-c3ccnn3C)ccc21 (stereo not drawn) [Example 156-P1] | –
10 | ≤ 10 nM | – | – | CN(C(=O)C(=O)Nc1cnc(N)c2c1cnn2C)C1COc2cc(-c3ccnn3C)ccc21 (stereo not drawn) [Example 192-P1] | –

Source: US20260345603A1, “PRMT5 INHIBITORS” (Beijing Earthwise Technology Co., Ltd., priority 2022, published 2026)
